Measurements reported in US8927717B1, “Thiochromeno[2,3-c]quinolin-12-one derivatives, preparation method and application thereof” (National Defense Medical Center, priority 2014, dated 2015).

Legend:
Format in all cases: cell-based
CCRF-CEM = details: 10^−5 molar; for Growth percent: CCRF-CEM
HL-60(TB) = details: 10^−5 molar; for Growth percent: HL-60(TB)
K-562 = details: 10^−5 molar; for Growth percent: K-562
RPMI-8226 = details: 10^−5 molar; for Growth percent: RPMI-8226
SR = details: 10^−5 molar; for Growth percent: SR
HOP-62 = details: 10^−5 molar; for Growth percent: HOP-62
NCI-H226 = details: 10^−5 molar; for Growth percent: NCI-H226
NCI-H460 = details: 10^−5 molar; for Growth percent: NCI-H460
NCI-H522 = details: 10^−5 molar; for Growth percent: NCI-H522
COLO 205 = details: 10^−5 molar; for Growth percent: COLO 205
HCT-116 = details: 10^−5 molar; for Growth percent: HCT-116
HCT-15 = details: 10^−5 molar; for Growth percent: HCT-15
HT29 = details: 10^−5 molar; for Growth percent: HT29
KM12 = assay: cells; details: 10^−5 molar; for Growth percent: KM12
SW-620 = details: 10^−5 molar; for Growth percent: SW-620
SF-295 = details: 10^−5 molar; for Growth percent: SF-295
SNB-19 = details: 10^−5 molar; for Growth percent: SNB-19
SNB-75 = details: 10^−5 molar; for Growth percent: SNB-75
U251 = details: 10^−5 molar; for Growth percent: U251
LOX IMVI = details: 10^−5 molar; for Growth percent: LOX IMVI
M14 = details: 10^−5 molar; for Growth percent: M14
SK-MEL-28 = details: 10^−5 molar; for Growth percent: SK-MEL-28
SK-MEL-5 = details: 10^−5 molar; for Growth percent: SK-MEL-5
OVCAR-5 = details: 10^−5 molar; for Growth percent: OVCAR-5
OVCAR-8 = details: 10^−5 molar; for Growth percent: OVCAR-8
NCI/ADR-RES = details: 10^−5 molar; for Growth percent: NCI/ADR-RES
SK-OV-3 = details: 10^−5 molar; for Growth percent: SK-OV-3
A498 = details: 10^−5 molar; for Growth percent: A498
RXF 393 = details: 10^−5 molar; for Growth percent: RXF 393
SN12C = details: 10^−5 molar; for Growth percent: SN12C
TK-10 = details: 10^−5 molar; for Growth percent: TK-10
PC-3 = details: 10^−5 molar; for Growth percent: PC-3
DU-145 = details: 10^−5 molar; for Growth percent: DU-145
MCF7 = details: 10^−5 molar; for Growth percent: MCF7
MDA-MB-231/ATCC = details: 10^−5 molar; for Growth percent: MDA-MB-231/ATCC
HS 578T = details: 10^−5 molar; for Growth percent: HS 578T
BT-549 = details: 10^−5 molar; for Growth percent: BT-549
T-47D = details: 10^−5 molar; for Growth percent: T-47D
60 cancer cell lines = assay: NCI 60-cell screen, SRB, whole panel (mean, delta, range); details: 10^−5 molar
[1] = Non-small cell lung cancer, 48 hours, SRB

O=c1c2cc(Cl)ccc2sc2c(NCCN3CCOCC3)nc3ccccc3c12 [Compound N16, 10-Chloro-6-((2-morpholinoethyl)amino)-12H-thiochromeno[2,3-c]quinolin-12-one]
Growth percent (CCRF-CEM): 82.21%
Growth percent (HL-60(TB)): 104.97%
Growth percent (K-562): 17.67%
Growth percent (RPMI-8226): 92.20%
Growth percent (SR): 67.74%
Growth percent (HOP-62): 67.97%
Growth percent (NCI-H226): 94.09%
Growth percent (NCI-H460): 100.49%
Growth percent (NCI-H522): 76.66%
Growth percent (COLO 205): 79.39%
Growth percent (HCT-116): 81.64%
Growth percent (HCT-15): 58.81%
Growth percent (HT29): 43.13%
Growth percent (KM12): 68.16%
Growth percent (SW-620): 99.65%
Growth percent (SF-295): 102.17%
Growth percent (SNB-19): 90.44%
Growth percent (SNB-75): 60.74%
Growth percent (U251): 76.34%
Growth percent (LOX IMVI): 67.43%
Growth percent (M14): 99.59%
Growth percent (SK-MEL-28): 98.56%
Growth percent (SK-MEL-5): 91.61%
Growth percent (OVCAR-5): 68.98%
Growth percent (OVCAR-8): 92.43%
Growth percent (NCI/ADR-RES): 77.03%
Growth percent (SK-OV-3): 85.34%
Growth percent (A498): 80.54%
Growth percent (RXF 393): 93.21%
Growth percent (SN12C): 95.98%
Growth percent (TK-10): 76.67%
Growth percent (PC-3): 67.82%
Growth percent (DU-145): 93.09%
Growth percent (MCF7): 51.69%
Growth percent (MDA-MB-231/ATCC): 59.20%
Growth percent (HS 578T): 89.65%
Growth percent (BT-549): 91.21%
Growth percent (T-47D): 47.63%
Growth percent, Delta (60 cancer cell lines; delta over panel): 62.71%
Growth percent, Mean (60 cancer cell lines; mean over panel): 80.38%
Growth percent, Range (60 cancer cell lines; range over panel): 88.85%

O=c1c2cc(Cl)ccc2sc2c(NCCO)nc3ccccc3c12 [Compound N9, 10-Chloro-6-(2-ethanolamino)-12H-thiochromeno[2,3-c]quinolin-12-one]
Growth percent CCRF-CEM (CCRF-CEM; Leukemia, 48 hours, SRB): 81.07%
Growth percent HL-60(TB) (HL-60(TB); Leukemia, 48 hours, SRB): 104.58%
Growth percent K-562 (K-562; Leukemia, 48 hours, SRB): 68.23%
Growth percent RPMI-8226 (RPMI-8226; Leukemia, 48 hours, SRB): 83.81%
Growth percent SR (SR; Leukemia, 48 hours, SRB): 60.44%
Growth percent HOP-62 (HOP-62; [1]): 81.90%
Growth percent NCI-H226 (NCI-H226; [1]): 83.55%
Growth percent NCI-H460 (NCI-H460; [1]): 100.97%
Growth percent NCI-H522 (NCI-H522; [1]): 76.94%
Growth percent COLO 205 (COLO 205; Colon cancer, 48 hours, SRB): 99.13%
Growth percent HCT-116 (HCT-116; Colon cancer, 48 hours, SRB): 93.62%
Growth percent HCT-15 (HCT-15; Colon cancer, 48 hours, SRB): 78.61%
Growth percent HT29 (HT29; Colon cancer, 48 hours, SRB): 87.36%
Growth percent KM12 (KM12; Colon cancer, 48 hours, SRB): 91.93%
Growth percent SW-620 (SW-620; Colon cancer, 48 hours, SRB): 97.18%
Growth percent SF-295 (SF-295; CNS cancer, 48 hours, SRB): 92.50%
Growth percent SNB-19 (SNB-19; CNS cancer, 48 hours, SRB): 90.96%
Growth percent SNB-75 (SNB-75; CNS cancer, 48 hours, SRB): 90.05%
Growth percent U251 (U251; CNS cancer, 48 hours, SRB): 84.10%
Growth percent LOX IMVI (LOX IMVI; Melanoma, 48 hours, SRB): 86.96%
Growth percent M14 (M14; Melanoma, 48 hours, SRB): 107.09%
Growth percent SK-MEL-28 (SK-MEL-28; Melanoma, 48 hours, SRB): 100.76%
Growth percent SK-MEL-5 (SK-MEL-5; Melanoma, 48 hours, SRB): 97.36%
Growth percent OVCAR-5 (OVCAR-5; Ovarian cancer, 48 hours, SRB): 101.56%
Growth percent OVCAR-8 (OVCAR-8; Ovarian cancer, 48 hours, SRB): 78.13%
Growth percent NCI/ADR-RES (NCI/ADR-RES; Ovarian cancer, 48 hours, SRB): 91.54%
Growth percent SK-OV-3 (SK-OV-3; Ovarian cancer, 48 hours, SRB): 104.57%
Growth percent A498 (A498; Renal cancer, 48 hours, SRB): 65.78%
Growth percent RXF 393 (RXF 393; Renal cancer, 48 hours, SRB): 92.81%
Growth percent SN12C (SN12C; Renal cancer, 48 hours, SRB): 92.52%
Growth percent TK-10 (TK-10; Renal cancer, 48 hours, SRB): 78.14%
Growth percent PC-3 (PC-3; Prostate cancer, 48 hours, SRB): 71.70%
Growth percent DU-145 (DU-145; Prostate cancer, 48 hours, SRB): 102.77%
Growth percent MCF7 (Table 2: MCF) (MCF7; Breast cancer, 48 hours, SRB): 29.66%
Growth percent MDA-MB-231/ATCC (MDA-MB-231/ATCC; Breast cancer, 48 hours, SRB): 66.62%
Growth percent HS 578T (HS 578T; Breast cancer, 48 hours, SRB): 83.24%
Growth percent BT-549 (BT-549; Breast cancer, 48 hours, SRB): 131.62%
Growth percent T-47D (T-47D; Breast cancer, 48 hours, SRB): 74.45%
Growth percent, Delta (60 cancer cell lines; delta over the cell panel, 48 hours, SRB): 56.67%
Growth percent, Mean (60 cancer cell lines; mean over the cell panel, 48 hours, SRB): 86.33%
Growth percent, Range (60 cancer cell lines; range over the cell panel, 48 hours, SRB): 101.96%

CN(C)CCCNc1nc2ccccc2c2c(=O)c3cc(Cl)ccc3sc12 [Compound N17, 10-Chloro-6-((3-(dimethylamino)propyl)amino)-12H-thiochromeno[2,3-c]quinolin-12-one]
Growth percent (CCRF-CEM): 69.06%
Growth percent (HL-60(TB)): 77.32%
Growth percent (K-562): 47.53%
Growth percent (RPMI-8226): 78.66%
Growth percent (SR): 48.48%
Growth percent (HOP-62): 86.73%
Growth percent (NCI-H226): 81.01%
Growth percent (NCI-H460): 88.06%
Growth percent (NCI-H522): 98.76%
Growth percent (COLO 205): 91.35%
Growth percent (HCT-116): 70.19%
Growth percent (HCT-15): 80.92%
Growth percent (HT29): 90.98%
Growth percent (KM12): 97.75%
Growth percent (SW-620): 91.74%
Growth percent (SF-295): 95.14%
Growth percent (SNB-19): 97.83%
Growth percent (SNB-75): 60.99%
Growth percent (U251): 84.19%
Growth percent (LOX IMVI): 66.16%
Growth percent (M14): 103.73%
Growth percent (SK-MEL-28): 99.63%
Growth percent (SK-MEL-5): 91.73%
Growth percent (OVCAR-5): 106.26%
Growth percent (OVCAR-8): 98.38%
Growth percent (NCI/ADR-RES): 96.94%
Growth percent (SK-OV-3): 99.91%
Growth percent (A498): 78.57%
Growth percent (RXF 393): 76.32%
Growth percent (SN12C): 83.63%
Growth percent (TK-10): 108.89%
Growth percent (PC-3): 81.31%
Growth percent (DU-145): 97.29%
Growth percent (MCF7): 51.20%
Growth percent (MDA-MB-231/ATCC): 73.39%
Growth percent (HS 578T): 87.67%
Growth percent (BT-549): 99.81%
Growth percent (T-47D): 79.82%
Growth percent, Delta (60 cancer cell lines; delta over panel): 44.56%
Growth percent, Mean (60 cancer cell lines; mean over panel): 85.32%
Growth percent, Range (60 cancer cell lines; range over panel): 68.13%
